Test results as given in patent US10596263B2, “Pazopanib formulation” (Novartis AG, priority 2011, dated 2020).

How the values were obtained:
[1] = Solubility of pazopanib in water at various pH; type: physicochemical
From the text: FIG. 2 is a graph showing the solubility of pazopanib in water at various pH.
Based on the pH-solubility curve of pazopanib (FIG. 2) the solubility profile between pH 3 and pH 6 is on a steep slope and therefore, small changes in pH will have a large change in solubility. At the lower pH levels the citrate and monohydrate salts predominate and at the higher pH the freebase predominates. When the suspension is buffered at pH 3.5 and below with citric acid and sodium phosphate buffering system, the drug substance in the suspension changes form to the hydrate and Citrate salts in less than 17 days after reconstitution under refrigerated storage condition 5° C. […] Therefore, the compositions of this invention are such that when reconstituted they preferably provide a suspension with a pH from 2.5 to 4.5, preferably a pH of from 3.0 to 4.2, and most preferably a pH of from 3.5 to 4.0.

[2] = In-vivo exposure of the drug after micronization; conditions: micronized active substance
From the text: The pazopanib active substance is preferably micronized. […] Particle size reduction also helps to improve the mouth-feel of the suspension. Micronization may be achieved using techniques known in the art. According to one embodiment, particle size reduction is achieved through the use of fluid energy jet mill wherein the powder gets suspended in a high velocity nitrogen gas stream in a milling chamber, and particle size is reduced due to the principle of impact and attrition due to the high velocity collisions between particles suspended within the nitrogen gas stream, causing them to break down into smaller particles. Centrifugal force causes the larger, heavy particles to separate from smaller, lighter particles. The small particles are dragged by the escaping fluid stream towards the center of the mill, where they are discharged into filter bags, and the material is then collected into drums. The large particles are thrown outward where they recirculate and re-collide, causing them to breakdown. According to one embodiment, the resulting particle size distribution of pazopanib hydrochloride particles is >90% between 0.61 and 10.0 microns. In another embodiment, at least 50% is from 1 to 10 microns, preferably from 1.1 to 3.9 microns. In another embodiment 90% is 20 microns or less, preferably 10 microns or less.

[3] = Physical stability (form conversion) of reconstituted pazopanib suspension, monitored by XRPD; type: physicochemical
Experimental: Regarding the use of buffers, physical stability of the invented suspension was determined to be a function of pH, temperature, buffering system, and buffer strength as shown in Table I (some repeat runs are shown).
By removing the sodium citrate from the buffering system the rate of formation of the citrate salt under both refrigerated and long term storage conditions was impeded. Suspensions containing citric acid and sodium phosphate buffering system at pH 4.0 with buffer strength from 0.05 to 0.20 M and no PVP were all stable up to 43 days at refrigerated conditions. At long term storage conditions of 25° C./60% RH form conversion was detected at day 7 but the citrate salt was first observed on day 20.
Table 4 depicts a qualitatively similar formulation to the exemplary formulation, Example 1. Both formulations were manufactured using the same unit operations and processing parameters. […] At long term storage conditions of 25° C./60% RH or room temperature the physical stability of the comparative suspension monitored by XRPD indicated a mixture of forms were detected at day 7 compared with the exemplary formulation (Table 3) that was stability up to 34 days. It was determined that the use of citric acid and trisodium citrate buffer system speed the conversion to the pazopanib citrate salt. It is believed that this is driven by the smaller buffering capacity of citric acid and trisodium citrate buffer.

[4] = Citric Acid/Sodium Citrate 0.2M, initial pH 4.0, PVP 0% wt/wt, 5° C./Ambient
[5] = Citric Acid/Sodium Citrate 0.5M, initial pH 4.0, PVP 0% wt/wt, 25° C./60% RH
[6] = Citric Acid/Sodium Phosphate 0.1M, initial pH 4.0, PVP 0% wt/wt, 25° C./60% RH
[7] = Citric Acid/Sodium Phosphate 0.2M, initial pH 4.0, PVP 0% wt/wt, 25° C./60% RH
[8] = citric acid and sodium phosphate buffer, pH 4.0, 0.05 to 0.20 M, no PVP, 25° C./60% RH

Compound: Cc1ccc(Nc2nccc(N(C)c3ccc4c(C)n(C)nc4c3)n2)cc1S(N)(=O)=O [pazopanib, 5-[[4-[(2,3-dimethyl-2H-indazol-6-yl)methylamino]-2-pyrimidinyl]amino]-2-methylbenzenesulfonamide]
- pH-solubility profile ([1]; between pH 3 and pH 6, water (FIG. 2)): steep slope
- solubility, effect of micronization ([1]; micronized active substance): enhance
- in-vivo exposure, effect of micronization [2]: enhance
- Physical Stability ([3]; Citric Acid/Sodium Citrate 0.05M, initial pH 4.0, PVP 0% wt/wt, 5° C./Ambient): 43 days
- Physical Stability: conversion to citrate salt by day [3, 4]: by day 42
- Physical Stability: mixture of forms by day [3, 4]: day 21;
- Physical Stability: conversion to citrate salt by day ([3]; Citric Acid/Sodium Citrate 0.2M, initial pH 4.0, PVP 0% wt/wt, 25° C./60% RH): day 7
- Physical Stability: conversion to citrate salt by day ([3]; Citric Acid/Sodium Citrate 0.5M, initial pH 4.0, PVP 0% wt/wt, 5° C./Ambient): day 14
- Physical Stability: conversion to citrate salt by day [3, 5]: day 14
- Physical Stability: mixture of forms at [3, 5]: initial;
- Physical Stability ([3]; Citric Acid/Sodium Phosphate 0.05M, initial pH 4.0, PVP 0% wt/wt, 5° C./Ambient): 43 days
- Physical Stability ([3]; Citric Acid/Sodium Phosphate 0.05M, initial pH 4.0, PVP 0% wt/wt, 25° C./60% RH): At least 7 Days;
- Physical Stability ([3]; Citric Acid/Sodium Phosphate 0.1M, initial pH 4.0, PVP 0% wt/wt, 5° C./Ambient): 43 days
- Physical Stability [3, 6]: At least 7 Days;
- Physical Stability: mixture of forms by day [3, 6]: day 20
- Physical Stability: conversion to citrate salt by day ([3]; Citric Acid/Sodium Phosphate 0.2M, initial pH 3.0, PVP 0% wt/wt, 5° C./Ambient): day 17
- Physical Stability: conversion to citrate salt by day ([3]; Citric Acid/Sodium Phosphate 0.2M, initial pH 3.2, PVP 0% wt/wt, 5° C./Ambient): day 17
- Physical Stability: conversion to citrate salt by day ([3]; Citric Acid/Sodium Phosphate 0.2M, initial pH 3.5, PVP 0% wt/wt, 5° C./Ambient): day 17
- Physical Stability ([3]; Citric Acid/Sodium Phosphate 0.2M, initial pH 4.0, PVP 0% wt/wt, 5° C./Ambient): 43 days
- Physical Stability [3, 7]: At least 7 Days;
- Physical Stability: conversion to citrate salt by day [3, 7]: day 20
- Physical Stability ([3]; PVP added, citric acid and sodium phosphate, pH 4.0, buffering strength 0.05 M): at least 20 days
- pazopanib monohydrochloride salt maintained until ([3]; PVP levels between 3.8 to 7.4% w/w, inclusive, citric acid and sodium phosphate, pH 4.0, 0.05 M): 34 days
- drug substance changes form to the hydrate and Citrate salts after reconstitution ([3]; buffered at pH 3.5 and below, citric acid and sodium phosphate, refrigerated 5° C.): less than 17 days
- form conversion started on day ([3]; citric acid and sodium citrate buffer, pH 4.0, buffer strength 0.05 M to 0.5 M, 5° C.): ≥ 14 days
- Conversion of pazopanib to the citrate salt observed at ([3]; citric acid and sodium citrate buffer, pH 4.0, buffer strength 0.05 M to 0.5 M, 25° C./60% RH): initial to day 7
- citrate salt first observed on day [3, 8]: 20 days
- form conversion detected at day [3, 8]: 7 days
- stable (physical stability of suspension) ([3]; citric acid and sodium phosphate buffer, pH 4.0, 0.05 to 0.20 M, no PVP, refrigerated conditions): up to 43 days
